Literature values as cited in patent publication US20050027113A1, “Compositions and methods relating to the daptomycin biosynthetic gene cluster” (priority 2001, published 2005).

What was measured:
[1] = administration of daptomycin and an aminoglycoside

Structure (SMILES): CCCCCCCCCC(=O)N[C@@H](Cc1c[nH]c2ccccc12)C(=O)N[C@H](CC(N)=O)C(=O)N[C@@H](CC(=O)O)C(=O)N[C@@H]1C(=O)NCC(=O)N[C@@H](CCCN)C(=O)N[C@@H](CC(=O)O)C(=O)N[C@H](C)C(=O)N[C@@H](CC(=O)O)C(=O)NCC(=O)N[C@H](CO)C(=O)N[C@@H]([C@H](C)CC(=O)O)C(=O)N[C@@H](CC(=O)c2ccccc2N)C(=O)O[C@@H]1C [daptomycin]
- antibacterial activity against classically resistant strains versus classically susceptible strains (gram-positive organisms; in vitro experiments): comparable
- minimum inhibitory concentration (MIC) value against susceptible strains, relative to vancomycin (gram-positive organisms; susceptible strains, fold lower than vancomycin): ~4 fold
- bactericidal activity against gram-positive organisms (gram-positive organisms; unlike glycopeptide antibiotics): rapid, concentration-dependent bactericidal activity
- effect on renal toxicity caused by a co-administered aminoglycoside [1]: may ameliorate renal toxicity caused by the aminoglycoside
